# Experimental data from PubChem BioAssay AID179 (DTP/NCI, 2004).
# pEC50, pIC50: −log10 of the molar value. Active and inactive are the calls of the source.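 How the source made its calls: active means compounds giving half or more protection of infected cells from virus-caused growth loss, again on retest; inactive means the rest.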
# System: CEM cells HIV-1 protection, formazan growth assay
# Experiment: NCI AIDS Antiviral Assay
# Settings: for pIC50: measured here: growth of uninfected CEM cells
# Procedure, shortened: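 Human CEM cells, uninfected and HIV-1-infected, exposed to five drug concentrations; growth measured by soluble formazan assay and scored as percent protection from infection, with protecting compounds retested.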
SMILES,pEC50,pIC50,outcome
Cc1cc(C)nc(NS(=O)(=O)c2ccc(NN=c3c4ccccc4n(C)c4ccccc34)cc2)n1,< 3.70,4.95,–
CC12CCC(C(=O)O1)C(C)(C)O2 (stereo not given),< 3.70,< 3.70,–
CN(C)CCCNc1ccnc2cc([N+](=O)[O-])ccc12,< 3.70,4.89,–
CC(=O)OC12C3C4C1C1C2C3C41OC(C)=O (stereo not given),< 3.70,< 3.70,–
C1C2CC3CC1CC(Nc1nc(NC45CC6CC(CC(C6)C4)C5)nc(NC45CC6CC(CC(C6)C4)C5)n1)(C2)C3,< 3.70,4.38,–
COc1ccccc1NC(=O)C1=C(C)NC(C)=C(C(=O)Nc2ccccc2OC)C1c1ccc(C(C)C)cc1,–,–,inactive
CCOC(=O)Nc1nc2cc(C(=O)OCC)n(C)c2s1,< 3.70,< 3.70,–
COc1cccc(/C=C2\Cc3ccccc3C2=O)c1,< 5.38,< 5.38,–
[O-]c1c2cc(-[n+]3c(-c4ccccc4)cc(-c4ccccc4)cc3-c3ccccc3)cc1COCCOCCOCCOCCOC2,< 3.70,4.44,–
CCCCS(=N)(=O)CC[C@H](N)C(=O)O (stereo not given in full),< 3.25,3.67,–
CN(COC(=O)C(C)(C)C)c1nc(N(C)COC(=O)C(C)(C)C)nc(N(C)COC(=O)C(C)(C)C)n1,< 4.00,4.73,–
CC(=O)OC1COC(c2ccccc2)OC1C1OC(c2ccccc2)OCC1OC(C)=O (stereo not given),< 3.70,< 3.70,–
CCCCCCCCCc1nn2c(Cc3ccccc3)nnc2s1,< 3.70,4.44,–
COc1ccc2c(=O)c(-c3ccc(OC)c(OC)c3OCc3ccccc3)coc2c1,< 3.70,4.16,–
O=C1c2ccccc2-c2nnc3c(c21)Cc1ccccc1C3,< 3.70,< 3.70,–
Cc1cc(Cl)ccc1NC(=O)C(=O)Cc1ccc([N+](=O)[O-])c([N+](=O)[O-])c1CC(=O)C(=O)Nc1ccc(Cl)cc1C,< 3.51,3.89,–
CSC1=Nc2ccccc2-c2nc3ccccc3cc2C1,–,–,inactive
O=c1nc(Oc2ccccc2)nc2cnccn12,< 3.43,3.84,–
CCOC(=O)c1[nH]n(-c2ccccc2)c(=O)c1/C=N/C(N)=S,< 3.70,< 3.70,–
O=C1CCCC1CN1CCCCC1 (stereo not given),–,–,inactive
COC1/C=C/OC2(C)Oc3c(C)c(O)c4c(O)c(c(C=NN5CCCCCCCCCCCCCCC5)c(O)c4c3C2=O)NC(=O)/C(C)=C/C=C/C(C)C(O)C(C)C(O)C(C)C(OC(C)=O)C1C (stereo not given),< 3.70,5.40,–
CN1C(OCc2ccccc2)c2c(ccc3c2OCO3)C2C=Cc3cc4c(cc3C21)OCO4 (stereo not given),< 4.93,6.17,–

SMILES,pEC50,pIC50,outcome
NC(Cn1ccc(=O)c(O)c1)C(=O)O (stereo not given),< 3.70,4.02,–
CCOC(=O)C(=O)Nc1cc(Cl)c(Cl)cc1Cl,< 4.20,< 4.20,–
C=CC1(C)CCC2=C(CCC3C(C)(C(=O)OC)CCCC23C)C1=O (stereo not given),< 3.70,4.54,–
CCOC(=O)C1=C(C)NC(=S)NC1c1ccccc1 (stereo not given),< 4.03,< 4.03,–
Cc1c2ncccc2cc2oc3ccccc3c(=O)c12,< 3.70,5.00,–
O=C1c2cccc(O)c2Cc2c(O)cc(CO)cc21,< 4.00,4.28,–
Nc1nc2c(ncn2C2CCC(CO)O2)c(=O)n1C(=O)c1ccccc1 (stereo not given),4.43,< 4.00,–
O=P(O)(O)C1CCCC(P(=O)(O)O)N1 (stereo not given),–,–,inactive
Cc1ccc(C)c(NC(=O)CC2SC(=Nc3ccccc3Cl)NC2=O)c1 (stereo not given),< 4.17,< 4.17,–
CCOC(=O)c1ccc(CS(=O)c2ccc(C)cc2)c([N+](=O)[O-])c1 (stereo not given),< 4.13,4.84,–
CC(=O)NC1C(OCc2ccccc2)OC(CO)C(O)C1OC(C)C(=O)NC(C)C(=O)NC(CCC(=O)NCCCCNc1c2ccccc2nc2cccc([N+](=O)[O-])c12)C(N)=O (stereo not given),< 3.70,7.20,–
O=C1CC(=O)NC(=NN2C(=O)CSC2c2ccc(Cl)cc2)N1 (stereo not given),< 3.70,3.98,–
CCOC(=O)c1c(C)nn2c1ccc1ccccc12,< 3.70,3.96,–
CCCNC(=O)Sc1ccccc1C(=O)NCCC(N)=O,< 5.58,–,–
N#Cc1ccccc1CSc1ncnc2nc[nH]c12,4.91,3.98,–
CN(C)c1ccc(/C=C(\C#N)c2ccc(Cl)c(Cl)c2)cc1,< 4.00,5.44,–
CC(=O)NN(c1ccccc1)C1CCN(c2ccccc2)N1C(C)=O (stereo not given),< 3.70,4.97,–
O=c1c(SCc2ccc(Cl)cc2)c(N2CCOCC2)cnn1-c1ccccc1,< 4.20,4.35,–
O=C(NCCC1([N+](=O)[O-])CCN(C(=O)c2ccccc2)CC1)c1ccccc1,–,–,inactive
O=C(O)/C(=C/c1c(O)ccc2ccccc12)c1csc(-c2nc(/C(=C\c3c(O)ccc4ccccc34)C(=O)O)cs2)n1,< 4.36,4.63,–
CCC12CC(c3ccccc3)C(C(=O)N1)C(=O)N2 (stereo not given),< 3.70,< 3.70,–
Cc1cc2c(c(C(C)(C)C)c1)O[P+](=O)Oc1c(cc(C)cc1C(C)(C)C)C2,< 4.73,< 4.73,–

SMILES,pEC50,pIC50,outcome
COCN1COCN(COC)C1=O,< 3.19,< 3.19,–
CCc1nn(S(=O)(=O)c2ccc(C)cc2)c2c1CS(=O)(=O)CC2,< 3.70,< 3.70,–
CC(C)N(C(=O)C12C3C4C5(C(=O)O)C(C1C35I)C42C(=O)O)C(C)C (stereo not given),< 3.25,< 3.25,–
Cc1nc2cc(Cl)cc(N)c2nc1C,< 3.20,3.53,–
CCc1cc(=O)oc2c3c(cc(OC(C)C)c12)O[C@H](C)[C@@H](C)C3=O,< 3.70,4.81,–
CCCCCCNC(=O)/C(=C/C=C/c1ccccc1)NC(=O)c1ccccc1,< 3.70,4.31,–
Cc1nc(Nc2ccccc2[N+](=O)[O-])sc1C(=O)CC(=O)C(=O)Nc1c(C(C)C)cccc1C(C)C,< 3.70,< 3.70,–
CC1CC(C)(C)NC2(CCCC2)N1 (stereo not given),< 3.70,< 3.70,–
COC(=O)/C(=N\Nc1nnc(C)n1N)C(C#N)c1ccccc1 (stereo not given),< 3.24,4.03,–
COc1ccc(C2NC(=O)N3C(c4ccc(OC)c(OC)c4)NC(=O)N23)cc1OC (stereo not given),< 3.70,< 3.70,–
Cc1cc(C)nc(NC(N)=NCCc2ccccc2)n1,< 3.70,5.48,–
CCOC(=O)c1c2ccccc2n2c(=O)n(-c3ccccc3)nnc12,< 3.70,4.45,–
Cc1nn(C)c2nc(=O)n(C)c(=O)c-2[n+]1[O-],< 3.70,4.57,–
CNC(=O)N1CN(c2ccccc2)C2(CCN(CCCC3(c4ccc(F)cc4)OCCO3)CC2)C1=O,< 3.70,4.41,–
O=C(c1ccccc1)N1C/C(=N\Nc2ccc(Cl)cc2)c2c([nH]c3ccccc23)C1,< 5.04,< 5.04,–
CC1C[P+](c2ccccc2)(c2ccccc2)Cc2ccccc21 (stereo not given),< 3.15,5.59,–
CCCCCCc1cn([C@H]2C[C@H](O)[C@@H](CO)O2)c(=O)[nH]c1=O,–,–,inactive
O=C(NCCCNC(=O)c1ccc2c(O)c(O)ccc2c1)c1ccc2c(O)c(O)ccc2c1,< 3.82,4.81,–
Cc1ccc(C)c(COCCOCn2cc(Br)c(N)nc2=O)c1,< 3.70,< 3.70,–
CC(CCc1nc2ccccc2[nH]1)C1CCC2C3CC[C@@H]4C[C@H](O)CC[C@]4(C)C3C[C@H](O)[C@]12C (stereo not given in full),< 4.30,5.39,–
CC(C(=O)O)c1ccc2c(c1)[nH]c1ccc(Cl)cc12 (stereo not given),< 3.61,3.85,–
NC[C@H]1Nc2ccccc2[C@@H](O)C1O (stereo not given in full),4.32,2.89,–

SMILES,pEC50,pIC50,outcome
CCC(=O)NC(Nc1cc(C)on1)(C(F)(F)F)C(F)(F)F,< 3.70,< 3.70,–
COC(=O)[C@H](CC(C)C)NC(=O)[C@H](Cc1ccccc1)N1CC2C=CC1C2 (stereo not given in full),< 3.17,< 3.17,–
S=C1CC(c2ccccc2)Sc2ccccc2N1 (stereo not given),< 3.70,4.02,–
CN(C)CCSC(=Nc1ccccc1)n1cccc1,< 4.58,< 4.58,–
CC(C)(C)OC(=O)N[C@@H](Cc1ccccc1)CN1CCCC1C(=O)OCc1ccccc1 (stereo not given in full),< 4.51,< 4.51,–
CC(C)CCCC(C)[C@H]1CC[C@H]2[C@@H]3CC[C@H]4C[C@@H](CCC=C(c5cc(Cl)c(OCc6cccc([N+](=O)[O-])c6)c(C(=O)O)c5)c5cc(Cl)c(OCc6cccc([N+](=O)[O-])c6)c(C(=O)O)c5)CC[C@]4(C)[C@H]3CC[C@]12C (stereo not given in full),4.02,< 3.70,–
O=C1C=C(C23CC4CC(CC(C4)C2)C3)Nc2ccccc2N1,< 3.70,–,–
N#Cc1cccc(N2C(=O)C3C4C=CC(C3C2=O)C2C(=O)N(c3cccc(C#N)c3)C(=O)C42)c1 (stereo not given),–,–,inactive
COC(C)(C)C/C=C/C(C)=C/C=C/C(C)=C\C=C\C(C)=C\C=C\C=C(C)\C=C\C=C(C)\C=C\C=C(C)\C=C\CC(C)(C)OC,–,–,inactive
Cc1cc(S(=O)(=O)Nc2nc(N)n(C)n2)c(S)cc1Cl,< 3.70,< 3.70,–
NC1CC(=O)c2cc(Cl)sc21 (stereo not given),< 3.70,< 3.70,–
Cc1ccc(C(=O)c2ccccc2)c(C(=O)O)c1,< 3.70,< 3.70,–
CCO/C(Cc1ccc(Cl)cc1)=N/NC(N)=S,< 3.70,4.02,–
Clc1ccccc1CSc1cnnc2ccccc12,< 4.03,4.17,–
COC(=O)Cn1cnc2c(Cl)nc(Nc3ccccc3)nc21,< 3.70,4.20,–
CCOP(=O)(OCC)C(Nc1ccc(F)cc1)c1ccccc1 (stereo not given),< 3.70,4.05,–
Cc1cc2c(=O)cc(-c3ccncc3)oc2c(C(N)=O)c1C,< 3.82,4.15,–
Cc1cn(C(=O)NC23CC4CC(CC(C4)C2)C3)c(=O)[nH]c1=O,< 4.00,4.29,–
COc1cccc(CCNc2c(C#N)c3nc4ccccc4n3c3ccccc23)c1,< 3.70,6.53,–
CC(C)(C)C(=O)O/C=C\OC1CCCC1(c1ccccc1)c1ccccc1 (stereo not given),< 3.70,5.02,–
CCOC(C)OC1CC(n2cc(C)c(=O)[nH]c2=O)OC1CO (stereo not given),< 4.83,4.88,–
N/N=C(N)/C(N)=N/N,–,–,inactive
